# Test results from US11596639B2, “Substituted indole Mcl-1 inhibitors” (Vanderbilt University, priority 2016, dated 2023).
# Where two headings read alike, the source gives them in different places.
# Tests used:
# Mcl-1 = Mcl-1 (Homo sapiens (Human), UniProt Q07820); assay: TR-FRET binding assay, FITC-Bak peptide and MBP-tagged Mcl-1; conditions: read-out: Ki for Inhibition of Mcl-1 by TR-FRET assay
# Method: Compounds are diluted in DMSO in a 16-point, semilog serial dilution scheme. […] The plate was mixed and incubated for 3 hours at room temperature. […] TR-FRET signal is plotted and IC50 and Ki values are calculated in the same manner as the fluorescence polarization anisotropy based competition assays.
# [1] = tested on: H929 human cancer cell lines; assay: Cellular viability / proliferation (Cell TiterGlo, 72 h); type: cell-based
# Procedure, shortened: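 Compounds were added as 2-fold serial dilutions from 50 μM (final DMSO <1%) to H929 cells seeded 1,000 per well in 10% FBS medium one day earlier.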
# [2] = Homo sapiens, NCI-H929, 72 h, read-out: GI50 on cellular proliferation of H929 human cancer cell lines, H929 cells, 72 h, Cell TiterGlo, 10% FBS
# [3] = H929 cells, 72 h, Cell TiterGlo, 10% FBS, read-out: GI50 on cellular proliferation of H929 human cancer cell lines
# Sequence of Mcl-1 (Q07820 172-327): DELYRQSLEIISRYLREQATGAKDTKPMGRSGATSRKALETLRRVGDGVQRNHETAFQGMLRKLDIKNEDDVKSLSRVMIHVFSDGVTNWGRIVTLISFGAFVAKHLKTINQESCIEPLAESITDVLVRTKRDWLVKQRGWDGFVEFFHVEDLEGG
SMILES,Ki (Mcl-1) [nM],"GI50 [1, 2] [nM]","GI50 [1, 3] [nM]"
"COc1ccc(N2C[C@@H](C)n3c(c(CCCOc4cc(C)c(Cl)c(C)c4)c4ccc(Cl)c(-c5c(C)ncnc5C)c43)C2=O)c2c1cc(C(=O)O)n2Cc1cc(C)ccn1 [Example 520, (R)-7-(7-chloro-10-(3-(4-chloro-3,5-dimethylphenoxy)propyl)-6-(4,6-dimethylpyrimidin-5-yl)-4-methyl-1-oxo-3,4-dihydropyrazino[1,2-a]indol-2(1H)-yl)-4-methoxy-1-((4-methylpyridin-2-yl)methyl)-1H-indole-2-carboxylic acid]",< 0.2,< 200,
"COCCCn1c(C(=O)O)cc2cc(C)cc(N3C[C@@H](C)n4c(c(CCCOc5cc(C)c(Cl)c(C)c5)c5ccc(Cl)c(-c6c(C)nn(C)c6C)c54)C3=O)c21 [Example 686, (R)-7-(7-chloro-10-(3-(4-chloro-3,5-dimethylphenoxy)propyl)-4-methyl-1-oxo-6-(1,3,5-trimethyl-1H-pyrazol-4-yl)-3,4-dihydropyrazino[1,2-a]indol-2(1H)-yl)-1-(3-methoxypropyl)-5-methyl-1H-indole-2-carboxylic acid]",< 0.2,520,
"Cc1cc(OCCCc2c3n(c4c(-c5c(C)nc(CN6CCN(C)CC6)nc5C)c(Cl)ccc24)[C@H](C)CN(c2cn(CCN(C)C)c4ccc(C(=O)O)cc24)C3=O)cc(C)c1Cl [Example 580, (R)-3-(7-chloro-10-(3-(4-chloro-3,5-dimethylphenoxy)propyl)-6-(4,6-dimethyl-2-((4-methylpiperazin-1-yl)methyl)pyrimidin-5-yl)-4-methyl-1-oxo-3,4-dihydropyrazino[1,2-a]indol-2(1H)-yl)-1-(2-(dimethylamino)ethyl)-1H-indole-5-carboxylic acid]",< 0.2,960,
"Cc1cc(OCCCc2c3n(c4c(-c5c(C)nn(C)c5C)c(Cl)ccc24)[C@H](C)CN(c2cn(CCN4CCCC4)c4ccc(-c5ncccn5)cc24)C3=O)cc(C)c1Cl [Example 567, (R)-7-Chloro-10-(3-(4-chloro-3,5-dimethylphenoxy)propyl)-4-methyl-2-(5-(pyrimidin-2-yl)-1-(2-(pyrrolidin-1-yl)ethyl)-1H-indol-3-yl)-6-(1,3,5-trimethyl-1H-pyrazol-4-yl)-3,4-dihydropyrazino[1,2-a]indol-1(2H)-one]",9.6,930,
"Cc1cc(OCCCc2c3n(c4c(-c5c(C)ncnc5C)c(Cl)ccc24)[C@H](C)CN(c2cn(C)c4ccc(-c5ncn(C)n5)cc24)C3=O)cc(C)c1Cl [Example 574, (R)-7-Chloro-10-(3-(4-chloro-3,5-dimethylphenoxy)propyl)-6-(4,6-dimethylpyrimidin-5-yl)-4-methyl-2-(1-methyl-5-(1-methyl-1H-1,2,4-triazol-3-yl)-1H-indol-3-yl)-3,4-dihydropyrazino[1,2-a]indol-1(2H)-one]",2.4,270,
"Cc1cc(OCCCc2c3n(c4c(-c5c(C)nn(C)c5C)c(Cl)ccc24)[C@H](C)CN(c2cn(C)c4ccc(-c5ncn(-c6ncccn6)n5)cc24)C3=O)cc(C)c1Cl [Example 646, (R)-7-Chloro-10-(3-(4-chloro-3,5-dimethylphenoxy)propyl)-4-methyl-2-(1-methyl-5-(1-(pyrimidin-2-yl)-1H-1,2,4-triazol-3-yl)-1H-indol-3-yl)-6-(1,3,5-trimethyl-1H-pyrazol-4-yl)-3,4-dihydropyrazino[1,2-a]indol-1(2H)-one]",0.3,240,
"Cc1cc(OCCCc2c3n(c4c(-c5c(C)nn(C)c5C)c(Cl)ccc24)[C@H](C)CN(c2cn(CC(N)=O)c4ccc(C(=O)O)cc24)C3=O)cc(C)c1Cl [Example 620, (R)-1-(2-amino-2-oxoethyl)-3-(7-chloro-10-(3-(4-chloro-3,5-dimethylphenoxy)propyl)-4-methyl-1-oxo-6-(1,3,5-trimethyl-1H-pyrazol-4-yl)-3,4-dihydropyrazino[1,2-a]indol-2(1H)-yl)-1H-indole-5-carboxylic acid]",< 0.2,7600,
"Cc1cc(OCCCc2c3n(c4c(-c5c(C)nn(C)c5C)c(Cl)ccc24)[C@H](C)CN(c2cc(CN4CCOCC4)cc4c(C(=O)O)cn(C)c24)C3=O)cc(C)c1Cl [Example 549, (R)-7-(7-chloro-10-(3-(4-chloro-3,5-dimethylphenoxy)propyl)-4-methyl-1-oxo-6-(1,3,5-trimethyl-1H-pyrazol-4-yl)-3,4-dihydropyrazino[1,2-a]indol-2(1H)-yl)-1-methyl-5-(morpholinomethyl)-1H-indole-3-carboxylic acid]",0.34,340,
"COCCOCCOc1cc(N2C[C@@H](C)n3c(c(CCCOc4cc(C)c(Cl)c(C)c4)c4ccc(Cl)c(-c5c(C)nn(C)c5C)c43)C2=O)c2c(c1)cc(C(=O)O)n2C [Example 633, (R)-7-(7-chloro-10-(3-(4-chloro-3,5-dimethylphenoxy)propyl)-4-methyl-1-oxo-6-(1,3,5-trimethyl-1H-pyrazol-4-yl)-3,4-dihydropyrazino[1,2-a]indol-2(1H)-yl)-5-(2-(2-methoxyethoxy)ethoxy)-1-methyl-1H-indole-2-carboxylic acid]",< 0.2,,< 200
"Cc1cc(OCCCc2c3n(c4c(-c5c(C)nn(C)c5C)c(Cl)ccc24)[C@H](C)CN(c2cc(OCC4CC4)cc4cc(C(=O)O)n(C)c24)C3=O)cc(C)c1Cl [Example 485, (R)-7-(7-Chloro-10-(3-(4-chloro-3,5-dimethylphenoxy)propyl)-4-methyl-1-oxo-6-(1,3,5-trimethyl-1H-pyrazol-4-yl)-3,4-dihydropyrazino[1,2-a]indol-2(1H)-yl)-5-(cyclopropylmethoxy)-1-methyl-1H-indole-2-carboxylic acid]",0.35,410,
"Cc1cc(OCCCc2c3n(c4c(-c5c(C)nn(C)c5C)c(Cl)ccc24)[C@H](C)CN(c2cn(C[C@H]4CCC[N+]4(C)C)c4ccc(C(=O)O)cc24)C3=O)cc(C)c1Cl [Example 667, (R)-2-((5-carboxy-3-((R)-7-chloro-10-(3-(4-chloro-3,5-dimethylphenoxy)propyl)-4-methyl-1-oxo-6-(1,3,5-trimethyl-1H-pyrazol-4-yl)-3,4-dihydropyrazino[1,2-a]indol-2(1H)-yl)-1H-indol-1-yl)methyl)-1,1-dimethylpyrrolidin-1-ium]",< 0.2,,8200
"COC1CCN(Cc2cc(N3C[C@@H](C)n4c(c(CCCOc5cc(C)c(Cl)c(C)c5)c5ccc(Cl)c(-c6c(C)nn(C)c6C)c54)C3=O)c3c(c2)cc(C(=O)O)n3C)CC1 [Example 649, (R)-7-(7-chloro-10-(3-(4-chloro-3,5-dimethylphenoxy)propyl)-4-methyl-1-oxo-6-(1,3,5-trimethyl-1H-pyrazol-4-yl)-3,4-dihydropyrazino[1,2-a]indol-2(1H)-yl)-5-((4-methoxypiperidin-1-yl)methyl)-1-methyl-1H-indole-2-carboxylic acid]",< 0.2,< 200,
"Cc1cc(OCCCc2c3n(c4c(-c5c(C)nn(C)c5C)c(Cl)ccc24)[C@H](C)CN(c2cn(CCN(C)C)c4ccc(C(=O)O)cc24)C3=O)cc(C)c1Cl [Example 510, (R)-3-(7-Chloro-10-(3-(4-chloro-3,5-dimethylphenoxy)propyl)-4-methyl-1-oxo-6-(1,3,5-trimethyl-1H-pyrazol-4-yl)-3,4-dihydropyrazino[1,2-a]indol-2(1H)-yl)-1-(2-(dimethylamino)ethyl)-1H-indole-5-carboxylic acid]",< 0.2,240,
"COc1ccc(N2C[C@@H](C)n3c(c(CCCOc4cc(C)c(Cl)c(C)c4)c4ccc(Cl)c(-c5c(C)n[nH]c5C)c43)C2=O)c2c1cc(C(=O)O)n2C [Example 727, (R)-7-(7-chloro-10-(3-(4-chloro-3,5-dimethylphenoxy)propyl)-6-(3,5-dimethyl-1H-pyrazol-4-yl)-4-methyl-1-oxo-3,4-dihydropyrazino[1,2-a]indol-2(1H)-yl)-4-methoxy-1-methyl-1H-indole-2-carboxylic acid]",< 0.2,500,
"Cc1cc(OCCCc2c3n(c4c(-c5c(C)nn(C)c5C)c(Cl)ccc24)[C@H](C)CN(c2cn(C)c4ccc(-n5ncnn5)cc24)C3=O)cc(C)c1Cl [Example 689, (R)-7-Chloro-10-(3-(4-chloro-3,5-dimethylphenoxy)propyl)-4-methyl-2-(1-methyl-5-(2H-tetrazol-2-yl)-1H-indol-3-yl)-6-(1,3,5-trimethyl-1H-pyrazol-4-yl)-3,4-dihydropyrazino[1,2-a]indol-1(2H)-one]",2.1,1700,
"Cc1cc(OCCCc2c3n(c4c(-c5c(C)nn(C)c5C)c(Cl)ccc24)[C@H](C)CN(c2cn(CC4CCN(C)C4)c4ccc(C(=O)O)cc24)C3=O)cc(C)c1Cl (stereo partly drawn) [Example 534, 3-((R)-7-Chloro-10-(3-(4-chloro-3,5-dimethylphenoxy)propyl)-4-methyl-1-oxo-6-(1,3,5-trimethyl-1H-pyrazol-4-yl)-3,4-dihydropyrazino[1,2-a]indol-2(1H)-yl)-1-((1-methylpyrrolidin-3-yl)methyl)-1H-indole-5-carboxylic acid]",< 0.2,520,
"COc1ccc(N2C[C@@H](C)n3c(c(CCCOc4cc(C)c(Cl)c(C)c4)c4ccc(Cl)c(-c5c(C)nn(C)c5C)c43)C2=O)c2c1c(C(=O)O)cn2Cc1cc(C)ccn1 [Example 619, (R)-7-(7-chloro-10-(3-(4-chloro-3,5-dimethylphenoxy)propyl)-4-methyl-1-oxo-6-(1,3,5-trimethyl-1H-pyrazol-4-yl)-3,4-dihydropyrazino[1,2-a]indol-2(1H)-yl)-4-methoxy-1-((4-methylpyridin-2-yl)methyl)-1H-indole-3-carboxylic acid]",0.26,470,
